Measurements reported in the supplement of paper PMC6045584.
± gives the standard deviation of the averaged measurements.

Experiments:
BI-2536 = compound: CC[C@@H]1C(=O)N(C)c2cnc(Nc3ccc(C(=O)NC4CCN(C)CC4)cc3OC)nc2N1C1CCCC1 [BI-2536]; assay: surviving fraction relative to DMSO-only wells; higher = less growth inhibition; details: exposure time: 5 days
How it was run: (§1)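 Each tumour cell line was screened three times, and only lines with replicate Pearson r >0.7 and median Z' >0.3 were kept. Cells in log phase were seeded at 250–500 per well in 384-well plates, left 24 hours, then exposed continuously for five days to inhibitors at 0.5, 1, 5, 10, 50, 100, 500 and 1000 nM. Viability was read as CellTiter-Glo luminescence, with surviving fraction normalised to the median of DMSO-only wells.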

TIOGUANINE = compound: Nc1nc2[nH]cnc2c(=S)[nH]1 [TIOGUANINE]; assay: as above; details: exposure time: 5 days
How it was run: as §1

Test System	surviving fraction (BI-2536; 0.5 nM)	surviving fraction (BI-2536; 1 nM)	surviving fraction (BI-2536; 5 nM)	surviving fraction (BI-2536; 10 nM)	surviving fraction (BI-2536; 50 nM)	surviving fraction (BI-2536; 100 nM)	surviving fraction (BI-2536; 500 nM)	surviving fraction (BI-2536; 1000 nM)	surviving fraction (TIOGUANINE; 0.5 nM)	surviving fraction (TIOGUANINE; 1 nM)	surviving fraction (TIOGUANINE; 5 nM)	surviving fraction (TIOGUANINE; 10 nM)	surviving fraction (TIOGUANINE; 50 nM)	surviving fraction (TIOGUANINE; 100 nM)	surviving fraction (TIOGUANINE; 500 nM)	surviving fraction (TIOGUANINE; 1000 nM)
KPD BONE	0.919 ± 0.06	0.925 ± 0.022	0.79 ± 0.024	0.482 ± 0.016	0.205 ± 0.012	0.197 ± 0.011	0.113 ± 0.0035	0.0597 ± 0.0038	0.998 ± 0.045	0.985 ± 0.098	0.989 ± 0.049	1 ± 0.047	1.03 ± 0.084	1.05 ± 0.027	1.03 ± 0.019	0.993 ± 0.059
NOS1 BONE	1.01 ± 0.12	0.839 ± 0.089	0.338 ± 0.056	0.296 ± 0.046	0.341 ± 0.074	0.387 ± 0.002	0.334 ± 0.034	0.328 ± 0.02	1.12 ± 0.037	1.14 ± 0.028	1.15 ± 0.093	1.17 ± 0.075	1.23 ± 0.1	1.19 ± 0.058	1.06 ± 0.099	1.05 ± 0.065
MHM BONE	1.02 ± 0.021	0.993 ± 0.017	1.03 ± 0.023	0.831 ± 0.058	0.404 ± 0.013	0.327 ± 0.026	0.248 ± 0.0076	0.258 ± 0.015	0.987 ± 0.028	0.9777 ± 0.0058	1.01 ± 0.024	0.986 ± 0.011	1.026 ± 0.0069	1.039 ± 0.0067	0.983 ± 0.028	0.999 ± 0.018
G292 BONE	0.9403 ± 0.0023	0.659 ± 0.042	0.254 ± 0.012	0.23 ± 0.013	0.161 ± 0.011	0.128 ± 0.0057	0.0832 ± 0.0094	0.0727 ± 0.0063	0.964 ± 0.034	0.998 ± 0.045	1 ± 0.021	0.984 ± 0.036	1.01 ± 0.023	1.02 ± 0.016	0.948 ± 0.011	0.949 ± 0.035
PCI30 HEADNECK	0.988 ± 0.027	0.689 ± 0.054	0.128 ± 0.015	0.149 ± 0.01	0.286 ± 0.029	0.337 ± 0.02	0.357 ± 0.0049	0.255 ± 0.011	0.892 ± 0.097	0.847 ± 0.013	0.978 ± 0.097	1.02 ± 0.047	1.02 ± 0.063	1.03 ± 0.016	0.918 ± 0.045	0.88 ± 0.072
93VU HEADNECK	1.11 ± 0.12	1.05 ± 0.06	0.507 ± 0.077	0.27 ± 0.012	0.258 ± 0.0056	0.333 ± 0.056	0.205 ± 0.023	0.123 ± 0.0066	0.831 ± 0.039	0.872 ± 0.088	1.03 ± 0.082	1.08 ± 0.094	1.06 ± 0.015	1.06 ± 0.11	0.798 ± 0.042	0.768 ± 0.081
22RV1 PROSTATE	1.01 ± 0.1	0.973 ± 0.029	0.1 ± 0.016	0.085 ± 0.012	0.159 ± 0.0085	0.221 ± 0.012	0.216 ± 0.013	0.213 ± 0.014	0.97 ± 0.042	0.971 ± 0.042	0.99 ± 0.049	0.999 ± 0.0061	1.06 ± 0.067	0.99 ± 0.039	0.988 ± 0.079	0.94 ± 0.042
MFM223 BREAST	0.818 ± 0.041	0.338 ± 0.017	0.0768 ± 0.0068	0.0932 ± 0.0063	0.137 ± 0.012	0.148 ± 0.012	0.141 ± 0.011	0.106 ± 0.016	1.01 ± 0.13	0.997 ± 0.062	1.09 ± 0.037	1.041 ± 0.009	1.13 ± 0.031	1.13 ± 0.045	1.05 ± 0.074	1 ± 0.068
HU09 BONE	1.03 ± 0.049	0.939 ± 0.14	0.066 ± 0.0044	0.0487 ± 0.0047	0.086 ± 0.033	0.076 ± 0.017	0.0617 ± 0.0081	0.0403 ± 0.0032	0.964 ± 0.059	1.05 ± 0.071	1.05 ± 0.041	1.1 ± 0.074	1.04 ± 0.062	1.09 ± 0.089	1.06 ± 0.015	0.927 ± 0.11
H23 LUNG	1.09 ± 0.05	1.05 ± 0.048	0.991 ± 0.065	0.446 ± 0.016	0.272 ± 0.015	0.213 ± 0.015	0.16 ± 0.014	0.142 ± 0.0076	0.962 ± 0.017	0.966 ± 0.044	0.974 ± 0.024	0.993 ± 0.046	0.997 ± 0.058	1.04 ± 0.03	0.964 ± 0.02	0.966 ± 0.025
YAMATO SYNOVIAL	1.05 ± 0.061	0.888 ± 0.05	0.345 ± 0.0062	0.315 ± 0.0095	0.324 ± 0.013	0.256 ± 0.014	0.279 ± 0.018	0.336 ± 0.027	1.31 ± 0.071	1.21 ± 0.046	1.32 ± 0.052	1.35 ± 0.11	1.36 ± 0.17	1.37 ± 0.06	1.24 ± 0.092	1.06 ± 0.066
SCC003 HEADNECK	1.06 ± 0.12	0.93 ± 0.027	0.467 ± 0.059	0.412 ± 0.066	0.596 ± 0.074	0.582 ± 0.033	0.381 ± 0.019	0.275 ± 0.028	0.892 ± 0.14	1 ± 0.1	1.01 ± 0.033	0.99 ± 0.094	0.998 ± 0.098	1.1 ± 0.12	0.988 ± 0.047	0.797 ± 0.027
VP229 BREAST	0.94 ± 0.022	0.729 ± 0.081	0.373 ± 0.093	0.234 ± 0.019	0.254 ± 0.042	0.247 ± 0.019	0.242 ± 0.025	0.19 ± 0.011	1.07 ± 0.089	1.06 ± 0.053	1.03 ± 0.031	1.04 ± 0.057	1.11 ± 0.14	1.1 ± 0.012	1.14 ± 0.17	1.08 ± 0.15
LM7 BONE	0.925 ± 0.054	0.688 ± 0.027	0.0677 ± 0.0055	0.076 ± 0.0056	0.137 ± 0.013	0.128 ± 0.025	0.0773 ± 0.004	0.0653 ± 0.012	0.966 ± 0.054	0.984 ± 0.068	1.02 ± 0.064	1.05 ± 0.068	1.08 ± 0.058	1.07 ± 0.039	0.965 ± 0.1	0.939 ± 0.13
SNU475 LIVER	1.03 ± 0.05	1.01 ± 0.065	0.587 ± 0.06	0.255 ± 0.026	0.2 ± 0.033	0.16 ± 0.0044	0.169 ± 0.0055	0.174 ± 0.018	0.949 ± 0.025	0.963 ± 0.02	0.961 ± 0.036	0.957 ± 0.028	0.966 ± 0.099	0.992 ± 0.025	0.899 ± 0.054	0.916 ± 0.012
SUM149.B1*.S BREAST	1.1 ± 0.091	1.05 ± 0.03	0.416 ± 0.067	0.232 ± 0.031	0.269 ± 0.032	0.287 ± 0.021	0.297 ± 0.045	0.229 ± 0.03	1.02 ± 0.072	1.019 ± 0.0064	1.03 ± 0.016	1.03 ± 0.056	1.02 ± 0.033	1 ± 0.015	0.993 ± 0.022	0.922 ± 0.033
